Results from patent US20100160369A1, “S1P1 Agonists and Methods of Making And Using” (EXELIXIS, INC., priority 2008, published 2010).
Structures can show the parent of a compound that is named as a salt.

Assays:
S1P1 [1] = biological target: T1, S1P1 (Homo sapiens, UniProt P21453); test: CNG cAMP Assay (Assay 1); assay type: cell-based; set-up: host or cells: HEK293 cells expressing the CNG channel; settings: read-out: Assay 1 EC50
How it was run: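 HEK293 cells expressing CNG channel and S1P1, membrane-potential dye loaded; compounds (top 10 μM, 10-point 3-fold, 1.8% DMSO) added with 25 μM Ro 20-1724, 500 nM NECA and 10 nM S1P for 90 min. T90/T0 fluorescence (Ex 350/Em 590 nm) normalised to NECA-alone vs DMSO; EC50 fitted.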
Target sequence in this assay (P21453 whole entry): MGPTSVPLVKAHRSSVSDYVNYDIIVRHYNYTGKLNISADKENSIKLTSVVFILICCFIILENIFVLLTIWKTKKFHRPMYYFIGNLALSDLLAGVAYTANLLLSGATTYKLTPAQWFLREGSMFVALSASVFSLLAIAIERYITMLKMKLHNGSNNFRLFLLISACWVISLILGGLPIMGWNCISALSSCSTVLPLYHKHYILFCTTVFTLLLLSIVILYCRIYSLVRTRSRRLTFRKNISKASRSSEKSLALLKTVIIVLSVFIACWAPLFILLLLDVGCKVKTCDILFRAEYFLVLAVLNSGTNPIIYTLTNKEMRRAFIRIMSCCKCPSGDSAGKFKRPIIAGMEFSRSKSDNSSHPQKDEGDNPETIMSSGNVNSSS

S1P1 [2] = biological target: T1, S1P1; test: Tango β-arrestin Recruitment Assay in HEK293 cells (Assay 2a); assay type: cell-based; set-up: linker with TEV protease (N1a) cleavage site (C); host or cells: HEK293, transiently transfected; settings: Tango β-arrestin Recruitment Assay, read-out: Assay 2a EC50
Description: For the Tango™ β-arrestin recruitment assay, the cytoplasmic C-terminus of S1P1 is tethered to the tTA transcriptional activator with a linker that contains a cleavage site for the N1a protease from tobacco etch virus (TEV protease). The C-terminus of the human β-arrestin2 protein is fused to TEV protease. Binding of an agonist recruits the β-arrestin-TEV fusion protein to the receptor resulting in cleavage of the linker and release of tTA to enter the nucleus and subsequently activate a tTA-dependent luciferase reporter gene.
Frozen HEK293 cells transiently transfected with receptor cDNAs for S1P1 (Invitrogen) were thawed and suspended in 10 mL of Pro293a-CDM culture medium (Invitrogen) supplemented with 4 mM L-Glutamine (Invitrogen), 1× Pen/Strep (100 units/mL penicillin and 100 μg/mL streptomycin, Invitrogen) and 0.1% fatty acid free BSA (Sigma-Aldrich). Cells were added to the wells of a 384-well white opaque bottom assay plate (PerkinElmer) at 3,000-6,000 cells per well and the plate was incubated for approximately 4 h in a 37° C. incubator. Test compounds were tested at maximum concentrations of 10 μM for the agonist assays. Compounds were diluted in DMSO (10 concentration points, 3-fold each) and added to the assay plate at a 1% final DMSO concentration. For each compound, there were duplicate assay plates and each assay plate had duplicate wells per concentration point. The plate was incubated at 37° C. for 30 min. The efficacy control was 5 μM S1P (Avanti). Following agonist addition, the assay plates were incubated in a 37° C. incubator for 16-18 h. Luciferase assay reagent was added and luminescence measured in an EnVision plate reader (PerkinElmer). To determine agonist activity, percent activity was calculated as [(test compound−background)/(positive control−background)* 100], where background is the luminescence of the DMSO alone control and the positive control is the luminescence from cells incubated with the efficacy control 5 μM S1P. The percent activities were plotted against compound concentration to determine EC50 using XLFit (IDBS).
(§1) Assay 1 is the CNG cAMP Assay as described in Biological Example 1. Assay 2a and 2b are the Tango™ β-arrestin Recruitment Assay in HEK293 and U2OS cells, respectively, as described in Biological Example 2. Assay 3a is the hS1P1R GTPγS Binding Assay as described in Biological Example 3. Assay 3b is the GTP-Eu Binding Assay as described in Biological Example 3. EC50's were measured unless otherwise noted. […] In the table, “nt” means the Compound was not tested and “no” means the compound was tested but had no measurable activity under the assay conditions employed.
Target sequence in this assay (P21453 whole entry): as above
Target sequence in this assay (P32121 whole entry partner): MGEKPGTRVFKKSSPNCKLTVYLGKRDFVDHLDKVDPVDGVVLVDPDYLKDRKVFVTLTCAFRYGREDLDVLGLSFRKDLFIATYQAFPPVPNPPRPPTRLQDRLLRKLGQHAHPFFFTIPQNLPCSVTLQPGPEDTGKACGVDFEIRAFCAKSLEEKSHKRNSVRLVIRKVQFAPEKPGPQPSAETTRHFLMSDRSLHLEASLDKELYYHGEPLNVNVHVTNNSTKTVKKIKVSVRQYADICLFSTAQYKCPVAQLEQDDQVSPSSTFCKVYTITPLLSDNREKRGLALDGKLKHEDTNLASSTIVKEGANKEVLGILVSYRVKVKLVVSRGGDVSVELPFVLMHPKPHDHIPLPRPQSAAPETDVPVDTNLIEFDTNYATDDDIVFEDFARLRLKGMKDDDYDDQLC

S1P1 [3] = biological target: T1, S1P1; test: Tango β-arrestin Recruitment Assay in U2OS cells (Assay 2b); assay type: cell-based; set-up: linker with TEV protease (N1a) cleavage site (C); settings: Tango β-arrestin Recruitment Assay, read-out: Assay 2b EC50
How it was run: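 U2OS cells expressing S1P1 and reporter, serum-starved 48 h, treated with compound (10-point 3-fold series, top 1 μM, 1% DMSO) overnight at 37 °C; β-lactamase substrate added 2 h at room temperature. F460/F530 ratio normalised to 1 μM S1P (100%) and DMSO; EC50 from concentration-response.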
Target sequence in this assay (P21453 whole entry): as the sequence (P21453 whole entry) above
Target sequence in this assay (P32121 whole entry partner): as the sequence (P32121 whole entry partner) above

hS1P1R (hEdg1) = biological target: T2, hS1P1R (hEdg1) (Homo sapiens, UniProt P21453); test: hS1P1R GTPγS Binding Assay (Assay 3a); assay type: biochemical
T2 construct: purchased Lonza
T2 sequence (P21453 whole entry): as the sequence (P21453 whole entry) above
Procedure: The hS1P1R GTPγS binding assay was carried out at room temperature in 96 well non-binding surface assay plates. The reaction in each well contained 4 μg hS1P1R (hEdg1) membrane protein (Lonza), 30 μM GDP, 0.1 nM [^35S]GTPγS, 0.25% fatty acid free BSA, and serially diluted hS1P1R agonist compound in 200 μL assay buffer (25 mM Tris-HCl PH 7.9, 100 mM NaCl, 3 mM MgCl2, and 0.2 mM EGTA). After one hour of incubation, 0.9 mg of WGA (Wheat Germ Agglutinin) SPA beads in 50 μL of assay buffer was added to each well. The SPA beads were spun down after an additional one hour incubation. The radioactivity of the bound GTPγS was counted by reading the assay plate using a MicroBeta.
as §1

Row | SMILES | EC50 (S1P1 [1]) [nM] | EC50 (S1P1 [2]) [nM] | EC50 (S1P1 [3]) [nM] | EC50 (hS1P1R (hEdg1)) [nM]
1 | OCC(O)COc1cc(Cl)c(-c2nnc(-c3cn4cc(C(F)(F)F)cc(Cl)c4n3)s2)cc1F (centres unmarked) [Example 247, 3-[(5-chloro-4-{5-[8-chloro-6-(trifluoromethyl)imidazo[1,2-a]pyridin-2-yl]-1,3,4-thiadiazol-2-yl}-2-fluorophenyl)oxy]propane-1,2-diol] | ≤ 100 | ≤ 100 | 100 to 500 | 
2 | NC(CO)COc1cc(Cl)c(-c2noc(-c3cn4cc(C(F)(F)F)cc(Cl)c4n3)n2)cc1Cl (centres unmarked) [Example 303, 2-amino-3-[(2,5-dichloro-4-{5-[8-chloro-6-(trifluoromethyl)imidazo[1,2-a]pyridin-2-yl]-1,2,4-oxadiazol-3-yl}phenyl)oxy]propan-1-ol] |  | ≤ 100 | ≤ 100 | 
3 | OCC(O)COc1cc(Cl)c(-c2noc(-c3cn4cc(I)cc(Cl)c4n3)n2)cc1Cl (centres unmarked) [Example 204, 3-({2,5-dichloro-4-[5-(8-chloro-6-iodoimidazo[1,2-a]pyridin-2-yl)-1,2,4-oxadiazol-3-yl]phenyl}oxy)propane-1,2-diol] |  | ≤ 100 |  | 100 to 500
4 | O=C(O)CCc1cc(Cl)c(-c2nc(-c3cn4cc(I)cc(Cl)c4n3)no2)cc1F [Example 240, 3-{5-chloro-4-[3-(8-chloro-6-iodoimidazo[1,2-a]pyridin-2-yl)-1,2,4-oxadiazol-5-yl]-2-fluorophenyl}propanoic acid] |  | ≤ 100 |  | 500 to 1000
5 | OCC(O)COc1c(Cl)cc(-c2noc(-c3cn4cc(C(F)(F)F)cc(Cl)c4n3)n2)cc1Cl (centres unmarked) [Example 209, 3-[(2,6-dichloro-4-{5-[8-chloro-6-(trifluoromethyl)imidazo[1,2-a]pyridin-2-yl]-1,2,4-oxadiazol-3-yl}phenyl)oxy]propane-1,2-diol] |  | ≤ 100 |  | ≤ 100
6 | CC(=O)COc1cc(Cl)c(-c2noc(-c3cn4cc(C(F)(F)F)cc(Cl)c4n3)n2)cc1Cl [Example 182] |  | ≤ 100 | ≤ 100 | 
7 | CC(Cc1cc(Cl)c(-c2nnc(-c3cn4cc(C(F)(F)F)cc(Cl)c4n3)s2)cc1Cl)C(=O)O (centres unmarked) [Example 285, 3-(2,5-dichloro-4-{5-[8-chloro-6-(trifluoromethyl)imidazo[1,2-a]pyridin-2-yl]-1,3,4-thiadiazol-2-yl}phenyl)-2-methylpropanoic acid] |  | ≤ 100 |  | 1000 to 5000
8 | OC(COc1cc(Cl)c(-c2noc(-c3cn4cc(C(F)(F)F)cc(Cl)c4n3)n2)cc1Cl)C(F)(F)F (centres unmarked) [Entry 77] |  | ≤ 100 | ≤ 100 | 
9 | Cc1cc(-c2nnc(-c3cn4cc(C(F)(F)F)cc(Cl)c4n3)s2)cc(C)c1OCC(O)CO (centres unmarked) [Example 246, 3-[(4-{5-[8-chloro-6-(trifluoromethyl)imidazo[1,2-a]pyridin-2-yl]-1,3,4-thiadiazol-2-yl}-2,6-dimethylphenyl)oxy]propane-1,2-diol] | ≤ 100 | ≤ 100 | ≤ 100 | 
10 | NC(CO)COc1ccc(-c2noc(-c3cn4cc(C(F)(F)F)cc(Cl)c4n3)n2)c(Cl)c1 (centres unmarked) [Example 213, 2-amino-3-[(3-chloro-4-{5-[8-chloro-6-(trifluoromethyl)imidazo[1,2-a]pyridin-2-yl]-1,2,4-oxadiazol-3-yl}phenyl)oxy]propan-1-ol] | ≤ 100 | ≤ 100 | ≤ 100 | 

Now from value to compound:

Row | EC50 (S1P1 [1]) [nM] | EC50 (S1P1 [2]) [nM] | EC50 (S1P1 [3]) [nM] | EC50 (hS1P1R (hEdg1)) [nM] | SMILES
11 |  | ≤ 100 | ≤ 100 |  | NC(CO)COc1cc(Cl)c(-c2nnc(-c3cn4cc(C(F)(F)F)cc(Cl)c4n3)s2)cc1F (centres unmarked) [Example 321, 2-amino-3-[(5-chloro-4-{5-[8-chloro-6-(trifluoromethyl)imidazo[1,2-a]pyridin-2-yl]-1,3,4-thiadiazol-2-yl}-2-fluorophenyl)oxy]propan-1-ol]
12 |  | ≤ 100 | ≤ 100 |  | O=P(O)(O)OC[C@H](O)COc1cc(Cl)c(-c2noc(-c3cn4cc(C(F)(F)F)cc(Cl)c4n3)n2)cc1Cl [Example 322, (2R)-3-[(2,5-dichloro-4-{5-[8-chloro-6-(trifluoromethyl)imidazo[1,2-a]pyridin-2-yl]-1,2,4-oxadiazol-3-yl}phenyl)oxy]-2-hydroxypropyl dihydrogen phosphate]
13 |  | ≤ 100 | ≤ 100 |  | C[C@H](COc1cc(Cl)c(-c2noc(-c3cn4cc(C(F)(F)F)cc(Br)c4n3)n2)cc1Cl)OP(=O)(O)O [Example 324, (1R)-2-[(4-{5-[8-bromo-6-(trifluoromethyl)imidazo[1,2-a]pyridin-2-yl]-1,2,4-oxadiazol-3-yl}-2,5-dichlorophenyl)oxy]-1-methylethyl dihydrogen phosphate]
14 |  | ≤ 100 | ≤ 100 |  | C[C@H](O)COc1cc(Cl)c(-c2noc(-c3cn4cc(C(F)(F)F)cc(Br)c4n3)n2)cc1Cl [Example 313, (2S)-1-[(4-{5-[8-bromo-6-(trifluoromethyl)imidazo[1,2-a]pyridin-2-yl]-1,2,4-oxadiazol-3-yl}-2,5-dichlorophenyl)oxy]propan-2-ol]
15 |  | ≤ 100 | ≤ 100 |  | C[C@@H](O)COc1cc(Cl)c(-c2noc(-c3cn4cc(C(F)(F)F)cc(Br)c4n3)n2)cc1Cl [Example 312, (2R)-1-[(4-{5-[8-bromo-6-(trifluoromethyl)imidazo[1,2-a]pyridin-2-yl]-1,2,4-oxadiazol-3-yl}-2,5-dichlorophenyl)oxy]propan-2-ol]
16 |  | ≤ 100 | ≤ 100 |  | C[C@@H](COc1cc(Cl)c(-c2noc(-c3cn4cc(C(F)(F)F)cc(Cl)c4n3)n2)cc1Cl)OS(=O)(=O)O [Example 326, (1S)-2-[(2,5-dichloro-4-{5-[8-chloro-6-(trifluoromethyl)imidazo[1,2-a]pyridin-2-yl]-1,2,4-oxadiazol-3-yl}phenyl)oxy]-1-methylethyl hydrogen sulfate]
17 |  | ≤ 100 | ≤ 100 |  | N[C@H](CO)COc1cc(Cl)c(-c2nnc(-c3cn4cc(C(F)(F)F)cc(Cl)c4n3)s2)cc1F [Example 334, (2R)-2-Amino-3-[(5-chloro-4-{5-[8-chloro-6-(trifluoromethyl)imidazo[1,2-a]pyridin-2-yl]-1,3,4-thiazol-2-yl}-2-fluorophenyl)oxy]propan-1-ol]
18 |  | ≤ 100 | ≤ 100 |  | OC[C@@H](O)COc1cc(Cl)c(-c2noc(-c3cn4cc(C(F)(F)F)cc(Br)c4n3)n2)cc1Cl [Example 317, (2R)-3-[(4-{5-[8-bromo-6-(trifluoromethyl)imidazo[1,2-a]pyridin-2-yl]-1,2,4-oxadiazol-3-yl}-2,5-dichlorophenyl)oxy]propane-1,2-diol]
19 |  | ≤ 100 | ≤ 100 |  | CC(O)(CO)COc1cc(Cl)c(-c2noc(-c3cn4cc(C(F)(F)F)cc(Cl)c4n3)n2)cc1Cl (centres unmarked) [Example 330, 3-[(2,5-dichloro-4-{5-[8-chloro-6-(trifluoromethyl)imidazo[1,2-a]pyridin-2-yl]-1,2,4-oxadiazol-3-yl}phenyl)oxy]-2-methylpropane-1,2-diol]
